Laboratory results published in patent US6455540B1, “Methods of use of quinolone compounds against anaerobic pathogenic bacteria” (priority 1999, dated 2002).
≈ marks a conversion by molar mass, not a printed value.

Columns and labels:
Test in all cases: Agar dilution MIC
Clostridium ramosum = type: cell-based; conditions: Thomasclavelia ramosa, 10 isolates
Bilophila wadsworthia = type: cell-based; conditions: 16 isolates, agar supplemented with pyruvate
[1] = tested on: Prevotella melaninogenica; type: cell-based; conditions: 12 isolates
Prevotella bivia = type: cell-based; conditions: Prevotella bivia, 21 isolates
[2] = tested on: Fusobacterium spp group 1; type: cell-based; conditions: Fusobacterium, 19 isolates
Fusobacterium russii = type: cell-based; conditions: Fusobacterium russii
[3] = tested on: Peptostreptococcus micros; type: cell-based; conditions: 12 isolates
Porphyromonas canoris = type: cell-based; conditions: 10 isolates
Fusobacterium varium = type: cell-based; conditions: Fusobacterium varium, 17 isolates
[4] = tested on: Prevotella denticola/loeschii group; type: cell-based; conditions: 6 isolates
Clostridium inocuum = type: cell-based, Clostridium innocuum; conditions: Clostridium, 11 isolates
Bacteroides tectum = type: cell-based; conditions: 22 isolates
[5] = tested on: Clostridium clostridioforme; type: cell-based; conditions: Clostridium, 11 isolates
[6] = tested on: Anaerobiospirillum succiniciproducens; type: cell-based; conditions: 3 isolates
[7] = tested on: Peptostreptococcus magnus; type: cell-based; conditions: Finegoldia magna, 13 isolates
[8] = tested on: Fusobacterium spp. group 2; type: cell-based, Fusobacterium mortiferum, necrogenes, ulcerans; conditions: Fusobacterium, 12 isolates
Bacteroides gracilis = type: cell-based, Bacteroides gracilis (Campylobacter gracilis); conditions: 11 isolates
Porphyromonas spp. = type: cell-based, Porphyromonas cangingivalis, cansulci, circumdentaria, levii; conditions: 11 isolates
[9] = tested on: Peptostreptococcus prevotii; type: cell-based; conditions: Anaerococcus prevotii, read-out: Minimal Inhibitory Concentration 50% (MIC50); 9 isolates
[10] = tested on: Prevotella buccae-oris group; type: cell-based; conditions: 22 isolates
Veillonella spp. = type: cell-based; conditions: Veillonella, 24 isolates
Clostridium dfficile = type: cell-based, Clostridium difficile; conditions: Clostridium
Bacteroides ureolyticus = type: cell-based; conditions: 17 isolates
[11] = tested on: Peptostreptococcus asaccharolyticus; type: cell-based; conditions: Peptoniphilus asaccharolyticus, 11 isolates
Porphyromonas macaccae = type: cell-based; conditions: 13 isolates
Prevotella intermedia = type: cell-based; conditions: Prevotella intermedia, 11 isolates
[12] = tested on: Anaerobiospirillum thomasii; type: cell-based; conditions: 13 isolates
[13] = tested on: Actinomyces odontolyticus; type: cell-based; conditions: Schaalia odontolytica, 10 isolates
[14] = tested on: Porphyromonas asaccharolyticus; type: cell-based, Porphyromonas asaccharolytica; conditions: Porphyromonas, 11 isolates
[15] = tested on: Prevotella heparinolytica; type: cell-based; conditions: 16 isolates
Actinomyces israelii = type: cell-based; conditions: Actinomyces israelii, read-out: Minimal Inhibitory Concentration 50% (MIC50); 6 isolates
Porphyromonas gingivalis = type: cell-based; conditions: 13 isolates
[16] = read-out: Minimal Inhibitory Concentration 50% (MIC50)
[17] = read-out: Minimal Inhibitory Concentration 90% (MIC90)
[18] = Porphyromonas, read-out: Minimal Inhibitory Concentration 50% (MIC50)
[19] = Porphyromonas, read-out: Minimal Inhibitory Concentration 90% (MIC90)

For `CC[C@H]1OC(=O)[C@H](C)[C@@H](O[C@H]2C[C@@](C)(OC)[C@@H](O)[C@H](C)O2)[C@H](C)[C@@H](O[C@@H]2O[C@H](C)C[C@H](N(C)C)[C@H]2O)[C@](C)(OC)C[C@@H](C)C(=O)[C@H](C)[C@@H](O)[C@]1(C)O` [Clarithromycin], the MIC50 (Clostridium ramosum; [16]) was 0.5 µg/mL (≈ 0.668 µM), the MIC90 (Clostridium ramosum; [17]) was over 32 µg/mL and the “Minimal Inhibitory Concentration Range” value (Bilophila wadsworthia) was 4 to 32 µg/mL. The MIC90 (Bilophila wadsworthia; Bilophila wadsworthia, read-out: Minimal Inhibitory Concentration 90% (MIC90)) was 32 µg/mL (≈ 42.8 µM), the MIC50 (Bilophila wadsworthia; Bilophila wadsworthia, read-out: Minimal Inhibitory Concentration 50% (MIC50)) was 16 µg/mL (≈ 21.4 µM) and the “Minimal Inhibitory Concentration Range” value [1] was 0.06 to 4 µg/mL. The MIC90 ([1]; Prevotella melaninogenica, read-out: Minimal Inhibitory Concentration 90% (MIC90)) was 1 µg/mL (≈ 1.34 µM), the MIC50 ([1]; Prevotella melaninogenica, read-out: Minimal Inhibitory Concentration 50% (MIC50)) was 0.125 µg/mL (≈ 0.167 µM) and the MIC90 (Prevotella bivia; [17]) was 0.25 µg/mL (≈ 0.334 µM). For the same compound, the MIC50 (Prevotella bivia; [16]) was 0.125 µg/mL (≈ 0.167 µM), the MIC50 ([2]; GROUP1, read-out: Minimal Inhibitory Concentration 50% (MIC50)) was 8 µg/mL (≈ 10.7 µM) and the MIC90 ([2]; GROUP1, read-out: Minimal Inhibitory Concentration 90% (MIC90)) was 32 µg/mL (≈ 42.8 µM). The MIC50 (Fusobacterium russii; [16]) was 4 µg/mL (≈ 5.35 µM), the MIC90 (Fusobacterium russii; [17]) was over 32 µg/mL and the “Minimal Inhibitory Concentration Range” value [3] was 0.6 µg/mL. The MIC50 ([3]; Parvimonas micra, read-out: Minimal Inhibitory Concentration 50% (MIC50)) was 0.5 µg/mL (≈ 0.668 µM), the MIC90 ([3]; Parvimonas micra, read-out: Minimal Inhibitory Concentration 90% (MIC90)) was 0.5 µg/mL (≈ 0.668 µM) and the “Minimal Inhibitory Concentration Range” value (Porphyromonas canoris) was 0.06 to 0.125 µg/mL. For the same compound, the MIC50 (Porphyromonas canoris; Porphyromonas canoris, read-out: Minimal Inhibitory Concentration 50% (MIC50)) was 0.06 µg/mL (≈ 0.0802 µM), the MIC90 (Porphyromonas canoris; Porphyromonas canoris, read-out: Minimal Inhibitory Concentration 90% (MIC90)) was 0.125 µg/mL (≈ 0.167 µM) and the MIC50 (Fusobacterium varium; [16]) was over 32 µg/mL. The MIC90 (Fusobacterium varium; [17]) was over 32 µg/mL, the “Minimal Inhibitory Concentration Range” value [4] was 0.03 to 2 µg/mL and the MIC50 ([4]; Prevotella denticola, read-out: Minimal Inhibitory Concentration 50% (MIC50)) was 0.06 µg/mL (≈ 0.0802 µM). For the same compound, the MIC90 (Clostridium inocuum; [17]) was over 32 µg/mL, the MIC50 (Clostridium inocuum; [16]) was over 32 µg/mL and the “Minimal Inhibitory Concentration Range” value (Bacteroides tectum) was 0.125 µg/mL. It also gave an MIC90 (Bacteroides tectum; Bacteroides pyogenes, read-out: Minimal Inhibitory Concentration 90% (MIC90)) of 0.125 µg/mL (≈ 0.167 µM), an MIC50 (Bacteroides tectum; Bacteroides pyogenes, read-out: Minimal Inhibitory Concentration 50% (MIC50)) of 0.125 µg/mL (≈ 0.167 µM) and an MIC90 [5, 17] of over 32 µg/mL. The MIC50 [5, 16] was 4 µg/mL (≈ 5.35 µM), the “Minimal Inhibitory Concentration Range” value [6] was 8 to 32 µg/mL and the MIC50 ([6]; Anaerobiospirillum succiniciproducens, read-out: Minimal Inhibitory Concentration 50% (MIC50)) was 32 µg/mL (≈ 42.8 µM). It also gave an MIC50 [7, 16] of 2 µg/mL (≈ 2.67 µM), an MIC90 [7, 17] of over 32 µg/mL and an MIC50 [8, 16] of over 32 µg/mL. The MIC90 [8, 17] was over 32 µg/mL, the “Minimal Inhibitory Concentration Range” value (Bacteroides gracilis) was 0.25 to 2 µg/mL and the MIC90 (Bacteroides gracilis; Campylobacter gracilis, read-out: Minimal Inhibitory Concentration 90% (MIC90)) was 1 µg/mL (≈ 1.34 µM). For the same compound, the MIC50 (Bacteroides gracilis; Campylobacter gracilis, read-out: Minimal Inhibitory Concentration 50% (MIC50)) was 1 µg/mL (≈ 1.34 µM), the “Minimal Inhibitory Concentration Range” value (Porphyromonas spp.) was 0.06 to 0.125 µg/mL and the MIC50 (Porphyromonas spp.; [18]) was 0.06 µg/mL (≈ 0.0802 µM). For the same compound, the MIC90 (Porphyromonas spp.; [19]) was 0.125 µg/mL (≈ 0.167 µM), the MIC50 [9] was over 32 µg/mL and the “Minimal Inhibitory Concentration Range” value [10] was 0.06 to 1 µg/mL. The MIC90 ([10]; Prevotella, read-out: Minimal Inhibitory Concentration 90% (MIC90)) was 0.25 µg/mL (≈ 0.334 µM), the MIC50 ([10]; Prevotella, read-out: Minimal Inhibitory Concentration 50% (MIC50)) was 0.125 µg/mL (≈ 0.167 µM) and the MIC90 (Veillonella spp.; [17]) was over 32 µg/mL. For the same compound, the MIC50 (Veillonella spp.; [16]) was 16 µg/mL (≈ 21.4 µM), the MIC50 (Clostridium dfficile; [16]) was 0.5 µg/mL (≈ 0.668 µM) and the MIC90 (Clostridium dfficile; read-out: Minimal Inhibitory Concentration 90% (MIC90), 14 isolates) was over 32 µg/mL. For the same compound, the “Minimal Inhibitory Concentration Range” value (Bacteroides ureolyticus) was 0.125 to 4 µg/mL, the MIC90 (Bacteroides ureolyticus; Campylobacter ureolyticus, read-out: Minimal Inhibitory Concentration 90% (MIC90)) was 2 µg/mL (≈ 2.67 µM) and the MIC50 (Bacteroides ureolyticus; Campylobacter ureolyticus, read-out: Minimal Inhibitory Concentration 50% (MIC50)) was 0.5 µg/mL (≈ 0.668 µM). The MIC50 [11, 16] was 2 µg/mL (≈ 2.67 µM), the MIC90 [11, 17] was over 32 µg/mL and the “Minimal Inhibitory Concentration Range” value (Porphyromonas macaccae) was 0.06 to 0.125 µg/mL. It also gave an MIC50 (Porphyromonas macaccae; [18]) of 0.125 µg/mL (≈ 0.167 µM), an MIC90 (Porphyromonas macaccae; [19]) of 0.125 µg/mL (≈ 0.167 µM) and an MIC90 (Prevotella intermedia; [17]) of 0.125 µg/mL (≈ 0.167 µM). The MIC50 (Prevotella intermedia; [16]) was at most 0.015 µg/mL, the “Minimal Inhibitory Concentration Range” value [12] was 2 to 32 µg/mL and the MIC50 ([12]; Anaerobiospirillum thomasii, read-out: Minimal Inhibitory Concentration 50% (MIC50)) was 4 µg/mL (≈ 5.35 µM). It also gave an MIC90 ([12]; Anaerobiospirillum thomasii, read-out: Minimal Inhibitory Concentration 90% (MIC90)) of 16 µg/mL (≈ 21.4 µM), an MIC90 [13, 17] of at most 0.015 µg/mL and an MIC50 [13, 16] of at most 0.015 µg/mL. The MIC50 [14, 16] was 0.06 µg/mL (≈ 0.0802 µM), the MIC90 [14, 17] was over 32 µg/mL and the “Minimal Inhibitory Concentration Range” value [15] was 0.06 to 0.125 µg/mL. For the same compound, the MIC90 ([15]; Prevotella heparinolytica, read-out: Minimal Inhibitory Concentration 90% (MIC90)) was 0.125 µg/mL (≈ 0.167 µM), the MIC50 ([15]; Prevotella heparinolytica, read-out: Minimal Inhibitory Concentration 50% (MIC50)) was 0.125 µg/mL (≈ 0.167 µM) and the MIC50 (Actinomyces israelii) was at most 0.015 µg/mL. The “Minimal Inhibitory Concentration Range” value (Porphyromonas gingivalis) was 0.06 to 0.125 µg/mL, the MIC50 (Porphyromonas gingivalis; Porphyromonas gingivalis, read-out: Minimal Inhibitory Concentration 50% (MIC50)) was 0.06 µg/mL (≈ 0.0802 µM) and the MIC90 (Porphyromonas gingivalis; Porphyromonas gingivalis, read-out: Minimal Inhibitory Concentration 90% (MIC90)) was 0.125 µg/mL (≈ 0.167 µM).
